These results are taken from paper PMC3449313 (Peptides, 2012).

The test system of experiment [1] is D. melanogaster pupal heart (white prepupae). It is filed as in vivo, Drosophila melanogaster. The settings on record: 1 uM; without PI; relative to the effect of DMS; mean.
For experiment [2], the system named is D. melanogaster adult gut. The experiment in a line: adult gut contraction. Format: in vivo, Drosophila melanogaster. Particulars: 0.1 nM; without PI; relative to the effect of DMS; mean.

For the substance VFLRFamide [[6-10]DMS], the “% Inhibition Pupal heart (without protease inhibitor)” value in experiment [1] is reported as 103%. For the same substance, the “% Inhibition Adult gut (without protease inhibitor)” value in experiment [2] came out at 78%.
